Source: publication PMC4568483, “A spheroid toxicity assay using magnetic 3D bioprinting and real-time mobile device-based imaging” (Scientific Reports, 2015)
Read-outs that look alike come from different tables or passages of the source.

What was measured:
3T3 spheroids [1] = assay: Gene expression profiling (mRNA sequencing) of spheroids with and without ATRA; conditions: 41.6 μM ATRA
3T3 spheroids [2] = assay: Spheroid toxicity assay (contraction of magnetically 3D bioprinted spheroids, mobile device imaging); type: cell-based, murine
Procedure: The spheroid toxicity assay was designed to rapidly assess toxicity in M3DB spheroids (Fig. 1A)[26]. At 70–80% confluence, 3T3s grown in 2D were statically incubated overnight with magnetic nanoparticles, allowing for nanoparticle association with the cells (NanoShuttle, Nano3D Biosciences, Houston, TX) at a concentration of 1 μL/1 × 10^4 cells (50 pg/cell)[18][25]. Cells were magnetized by the electrostatic and non-specific attachment of nanoparticles to the cell membrane via poly-L-lysine. Once attached onto the membrane, the nanoparticles remain for 7–8 d before releasing into the ECM[18]. If internalized, the nanoparticles will exit the cell still attached to the membrane.
After magnetization, the cells were enzymatically detached with trypsin, resuspended in media, then distributed into ultra-low attachment 6-well plates (Corning, Tewksbury, MA) at a concentration of 3.2 × 10^6 cells in 2 mL (1.6 × 10^6 cells/mL). A magnetic drive of 6 neodymium magnets (Nano3D Biosciences) was placed atop the well plate to levitate the cells in 3D (500 G, 30 pN, see Supplemental Fig. S12). The purpose of this levitation step was to induce ECM formation, as was shown previously with primary human pulmonary fibroblasts and tracheal smooth muscle cells that extruded laminin after 1 h of levitation. […] After 1 h of levitation, the levitated cultures were broken up and resuspended in media using pipette action to yield a suspension of magnetized cells and ECM, which was distributed into an ultra-low attachment 96-well plate (Corning) at a concentration of 7.5 × 10^4 cells/well (n = 3 per compound concentration). Immediately afterwards, the plate was placed atop a magnetic drive of 96 neodymium magnets (0.0625” OD, Nano3D Biosciences) to attract the cells (120 G, 10 pN, see Supplemental Fig. S12) and ECM to the bottom of the well to form a spheroid. These spheroids were printed on the magnets for 15 min. At this point, the cells within the spheroids were connected but loose, and their competency could be empirically assessed by their ability to stay together when the magnet was removed. Towards the end of the printing time, compounds were added to the wells achieve their final concentrations. The plate was then removed from the magnet and the spheroids were allowed to contract.
M3DB spheroids and their contraction were imaged using a mobile device-based imaging system (Fig. 1B)[26]. After printing, the plate of spheroids were placed atop an acrylic imaging apparatus with a mobile device (iPod touch 5th generation, 16 GB, Apple Computer, Cupertino, CA) below the plate facing upwards, and a light source (LightPad A920, Artograph, Delano, MN) above the plate to illuminate the images. The mobile device was programmed using an application (Experimental Assistant, Nano3D Biosciences) to image the plate every 4 min for a period of 10 h. When the spheroids had finished contracting, the images were transferred to a computer where they were analyzed using a custom image analysis code written in Python that processed thousands of images in hours. The area of the spheroid was measured over time, as well as the rate of contraction for the first 150 min using a linear least-squares fit (OriginPro, OriginLab, Northampton, MA). The rates of contraction served as the endpoint for the assay, and were plotted against compound concentration and fit to a Boltzmann sigmoidal function (OriginPro) from which the IC50’s were determined.

3T3s in 2D = assay: MTT assay on 2D monolayers, viability after 72 h; type: cell-based, murine; conditions: for IC50 / MTT IC50: 2D, viability at 72 h; for Effect on viability in 2D: MTT
Procedure: The MTT assay was performed to compare its endpoint, viability of 3T3s in 2D after 72 h, with spheroid contraction. 3T3s were seeded on 96-well plates (n = 3 per compound concentration) at a concentration of 2.5 × 10^4 cells/well to adhere overnight. The following day, compounds were added to each well at the desired concentration. After 72 hours of incubation, the media was replaced with 10% MTT (Sigma-Aldrich) in media. The cells were incubated with the reagent for at least 4 hours at 37 °C. Following incubation, the media was aspirated and the remaining formazan was dissolved in acidified isopropanol (0.1 N HCl). The absorbance of the solution was then read at 570 nm in a spectrophotometer (SpectraMax Plus 384, Molecular Devices, Sunnyvale, CA) with background subtraction at 690 nm. Dose-response curves were plotted and fit to a Boltzmann sigmoidal function (OriginPro) similarly to the spheroid toxicity assay.

3T3s = conditions: 2D, read-out: Literature IC50, cited from earlier work
3T3 spheroids [3] = assay: MTT assay on 3T3 spheroids; type: cell-based, murine; conditions: 3D spheroids
Description: Figure S7: Dose response curves of 3T3 spheroids exposed to ATRA, SDS, and penicillin-G as measured by the MTT assay.

[4] = Mus musculus, 2.5 h, 3D, endpoint rate of contraction over 150 min
[5] = 3D, endpoint rate of contraction over 150 min
[6] = ref NIEHS Registry of Cytotoxicity [35]

SMILES: CC1=C(/C=C/C(C)=C/C=C/C(C)=C/C(=O)O)C(C)(C)CCC1 [ATRA, all-trans retinoic acid]
- Expression of genes for apoptotic inhibitors (BCL2, BIRC2, BIRC3) (3T3 spheroids [1]): downregulation
- Expression of the gene for p53 (3T3 spheroids [1]): upregulation
- Number of genes downregulated as a function of exposure (3T3 spheroids [1]): 40 genes
- Number of genes expressed differently between exposed and unexposed spheroids (3T3 spheroids [1]; 72 h exposure, 364 genes profiled): 99 genes
- Concentration at and above which spheroid contraction was affected (3T3 spheroids [2]): ≥ 41.6 µM
- IC50 (3T3 spheroids [2]; [4]): 82.8 µM
- Fate of 3T3s in 2D on exposure (3T3s in 2D; 2D culture, 41.6 μM ATRA, 72 h): lysed before 72 h
- IC50 (3T3s in 2D; Mus musculus): 24.7 µM
- IC50 (3T3s; ref Seiler et al., 2011 [16]): 20 µM
- Dose response of spheroid viability by MTT (3T3 spheroids [3]): significant dose-dependent response

SMILES: CCCCCCCCCCCCOS(=O)(=O)[O-].[Na+] [SDS, sodium dodecyl sulfate]
- IC50 (3T3 spheroids [2]; [5]): 282 µM
- IC50 (3T3s in 2D): 167 µM
- IC50 (3T3s; [6]): 270 µM
- Dose response of spheroid viability by MTT (3T3 spheroids [3]): significant dose-dependent response

SMILES: C=C[C@@]1(C)CC(=O)[C@]2(O)[C@@]3(C)[C@@H](O)CCC(C)(C)[C@@H]3[C@H](O)[C@H](OC(C)=O)[C@@]2(C)O1 [Forskolin, forskolin]
- IC50 (3T3 spheroids [2]; [4]): 4.7 µM
- IC50 (3T3s in 2D; Mus musculus): 0.6 µM
- IC50 (3T3s; ref Varrault et al., 1992 [46]): 26 µM

SMILES: CC1(C)S[C@@H]2[C@H](NC(=O)Cc3ccccc3)C(=O)N2[C@H]1C(=O)O [Penicillin-G, penicillin-G]
- Spheroid Assay IC50 (3T3 spheroids [2]; [5]): n.s.
- Effect on spheroid contraction (3T3 spheroids [2]; rate of contraction over first 150 min): no effect on spheroid contraction
- IC50 (3T3s in 2D; Mus musculus): 1770 µM
- IC50 (3T3s; [6]): 5730 µM
- Dose response of spheroid viability by MTT (3T3 spheroids [3]): significant dose-dependent response

SMILES: C[C@@H]1C[C@H]2[C@@H]3CCC4=CC(=O)C=C[C@]4(C)[C@@]3(F)[C@@H](O)C[C@]2(C)[C@@]1(O)C(=O)CO [Dexamethasone, dexamethasone]
- IC50 (3T3 spheroids [2]; [4]): 84.6 µM
- MTT IC50 (3T3s in 2D): n.s.
- Effect on viability in 2D (3T3s in 2D; 72 h): no significant effect
- IC50 (3T3s; ref Nakada et al., 1987 [45]): 0.00277 µM

SMILES: COc1cccc2c1C(=O)c1c(O)c3c(c(O)c1C2=O)C[C@@](O)(C(=O)CO)C[C@@H]3O[C@H]1C[C@H](N)[C@H](O)[C@H](C)O1 [Doxorubicin, doxorubicin]
- IC50 (3T3 spheroids [2]; [4]): 46.7 µM
- IC50 (3T3s in 2D; Mus musculus): 12.7 µM
- IC50 (3T3s; [6]): 0.33 µM

SMILES: O=c1[nH]cc(F)c(=O)[nH]1 [5′-fluorouracil]
- IC50 (3T3 spheroids [2]; [5]): 253 µM
- MTT IC50 (3T3s in 2D): n.s.
- Effect on viability in 2D (3T3s in 2D; 72 h): no significant effect
- IC50 (3T3s; [6]): 2.6 µM
